pIC50, pKi: −log10 of the molar value.

Assay [1] is described as follows: DRUGMATRIX: Atrial Natriuretic Factor (ANF) radioligand binding (ligand: [125I] ANF (rat)). The format is cell membranes, Cavia porcellus, Dunkin-Hartley, Adrenal gland, Membrane. As to conditions: Not Active = under 50% inhibition at 10 µM.
A further assay addresses Insulin receptor (Rattus norvegicus, UniProt P15127). The format is cell membranes, Wistar, Liver, Membrane.
The target of another assay is D(1A) dopamine receptor (Homo sapiens, UniProt P21728). The assay is described as follows: DRUGMATRIX: Dopamine D1 radioligand binding (ligand: [3H] SCH-23390). The format is cell membranes, CHO, Membrane. The note with it: Not Active = under 50% inhibition at 10 µM; for IC50 / Ki: cho.
D(1A) dopamine receptor, sequence (P21728 whole entry): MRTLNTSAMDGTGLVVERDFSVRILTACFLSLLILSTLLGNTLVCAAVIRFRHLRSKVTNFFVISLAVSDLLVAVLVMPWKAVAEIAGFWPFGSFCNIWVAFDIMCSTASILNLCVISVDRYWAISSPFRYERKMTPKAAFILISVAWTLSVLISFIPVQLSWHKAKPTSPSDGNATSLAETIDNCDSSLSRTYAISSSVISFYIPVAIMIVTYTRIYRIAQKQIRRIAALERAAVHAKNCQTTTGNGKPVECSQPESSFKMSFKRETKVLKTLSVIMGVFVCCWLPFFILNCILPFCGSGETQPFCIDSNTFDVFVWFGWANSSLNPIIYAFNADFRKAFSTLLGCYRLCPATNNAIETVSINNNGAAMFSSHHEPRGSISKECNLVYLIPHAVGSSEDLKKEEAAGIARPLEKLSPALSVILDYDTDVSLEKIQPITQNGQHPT
Assay [2] in a line: DRUGMATRIX: Potassium Channel [KATP] radioligand binding (ligand: [3H] Glyburide). The format is cell membranes, Membrane. The note with it: hit-t15; Not Active = under 50% inhibition at 10 µM.
Assay [3] concerns the target T1, Alpha-1D adrenergic receptor (Homo sapiens, UniProt P25100). Note: in other assays of this panel Not Active means under 50% inhibition at 10 µM.
T1 sequence (P25100 whole entry): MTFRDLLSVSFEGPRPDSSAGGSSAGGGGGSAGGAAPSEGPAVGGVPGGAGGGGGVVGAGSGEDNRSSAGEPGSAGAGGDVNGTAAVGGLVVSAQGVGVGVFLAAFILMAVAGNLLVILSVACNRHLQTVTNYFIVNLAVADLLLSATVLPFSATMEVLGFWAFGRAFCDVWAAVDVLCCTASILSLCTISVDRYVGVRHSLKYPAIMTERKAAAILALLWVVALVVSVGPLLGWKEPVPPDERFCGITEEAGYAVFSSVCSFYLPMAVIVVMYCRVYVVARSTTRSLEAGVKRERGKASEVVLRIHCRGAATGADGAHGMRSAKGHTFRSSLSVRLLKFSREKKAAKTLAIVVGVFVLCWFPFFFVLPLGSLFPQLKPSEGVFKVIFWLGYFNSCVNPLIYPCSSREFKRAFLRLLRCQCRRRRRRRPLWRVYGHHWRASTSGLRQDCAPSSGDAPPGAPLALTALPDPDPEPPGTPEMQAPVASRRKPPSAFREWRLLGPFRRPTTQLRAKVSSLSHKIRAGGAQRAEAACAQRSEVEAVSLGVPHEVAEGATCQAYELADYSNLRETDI
The format is cell membranes, HEK293, Membrane. As to conditions: hek293.

The target in the next assay is Mu-type opioid receptor (Homo sapiens, UniProt P35372). Description: DRUGMATRIX: Opiate mu (OP3, MOP) radioligand binding (ligand: [3H] Diprenorphine). The format is cell membranes, CHO-K1, Membrane. The note with it: cho-k1; Not Active = under 50% inhibition at 10 µM.
Mu-type opioid receptor, sequence (P35372 whole entry): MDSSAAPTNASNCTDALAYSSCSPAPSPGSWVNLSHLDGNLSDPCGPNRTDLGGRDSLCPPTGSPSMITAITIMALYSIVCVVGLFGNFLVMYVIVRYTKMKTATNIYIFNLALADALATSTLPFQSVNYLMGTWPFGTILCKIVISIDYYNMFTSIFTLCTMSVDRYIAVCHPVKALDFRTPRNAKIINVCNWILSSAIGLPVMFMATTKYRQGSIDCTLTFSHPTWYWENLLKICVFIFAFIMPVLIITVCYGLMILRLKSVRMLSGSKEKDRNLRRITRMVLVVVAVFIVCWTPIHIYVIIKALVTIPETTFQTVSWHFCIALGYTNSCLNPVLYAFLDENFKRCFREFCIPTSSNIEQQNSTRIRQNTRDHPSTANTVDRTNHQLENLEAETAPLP
For assay [4], the target named is Tyrosine-protein kinase Fyn (Homo sapiens, UniProt P06241). Description: biochemical. The format is cell-based, Insect cells. As to conditions: insect cells; for pIC50: read-out: IC50.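 For all read-outs here: enzymatic inhibition of Fyn kinase activity measured with Poly(Glu:Tyr) as the phosphorylation substrate; in other assays of this panel Not Active means under 50% inhibition at 10 µM.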
Tyrosine-protein kinase Fyn, sequence (P06241 whole entry): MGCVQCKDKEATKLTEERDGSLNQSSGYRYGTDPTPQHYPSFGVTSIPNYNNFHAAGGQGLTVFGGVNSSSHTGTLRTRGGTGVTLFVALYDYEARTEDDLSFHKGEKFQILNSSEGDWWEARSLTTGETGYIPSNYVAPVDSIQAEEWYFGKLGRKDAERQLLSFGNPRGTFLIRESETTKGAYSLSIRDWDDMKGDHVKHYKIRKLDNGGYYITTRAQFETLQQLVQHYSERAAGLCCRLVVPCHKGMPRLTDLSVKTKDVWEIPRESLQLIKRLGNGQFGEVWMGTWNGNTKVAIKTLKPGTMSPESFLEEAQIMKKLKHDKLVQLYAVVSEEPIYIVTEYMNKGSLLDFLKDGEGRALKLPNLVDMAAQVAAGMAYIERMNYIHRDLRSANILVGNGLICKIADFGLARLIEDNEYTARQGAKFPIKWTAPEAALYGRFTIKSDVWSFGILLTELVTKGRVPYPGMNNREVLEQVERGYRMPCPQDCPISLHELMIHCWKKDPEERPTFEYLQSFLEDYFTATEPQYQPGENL

Insulin receptor, sequence (P15127 27-759 limits assumed): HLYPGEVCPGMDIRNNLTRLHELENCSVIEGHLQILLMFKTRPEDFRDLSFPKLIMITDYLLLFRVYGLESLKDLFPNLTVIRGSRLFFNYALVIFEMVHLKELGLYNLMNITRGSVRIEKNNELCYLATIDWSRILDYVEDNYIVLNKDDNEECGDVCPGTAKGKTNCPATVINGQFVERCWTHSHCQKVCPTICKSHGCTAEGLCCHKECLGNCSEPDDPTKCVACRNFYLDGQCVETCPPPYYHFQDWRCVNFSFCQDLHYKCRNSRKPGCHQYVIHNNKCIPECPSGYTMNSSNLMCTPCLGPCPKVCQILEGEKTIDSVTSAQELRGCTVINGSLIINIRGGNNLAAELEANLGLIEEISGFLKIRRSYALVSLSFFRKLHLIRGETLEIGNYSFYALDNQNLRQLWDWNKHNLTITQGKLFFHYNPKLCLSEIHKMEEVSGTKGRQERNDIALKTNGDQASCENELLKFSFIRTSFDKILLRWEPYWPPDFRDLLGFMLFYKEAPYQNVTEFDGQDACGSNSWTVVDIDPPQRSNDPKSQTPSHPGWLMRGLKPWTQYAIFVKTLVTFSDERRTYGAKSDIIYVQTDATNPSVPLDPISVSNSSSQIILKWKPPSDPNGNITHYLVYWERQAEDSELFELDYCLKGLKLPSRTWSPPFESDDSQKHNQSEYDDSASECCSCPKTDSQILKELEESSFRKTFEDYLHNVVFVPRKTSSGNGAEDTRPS
Insulin receptor, sequence (P15127 764-1383 limits assumed): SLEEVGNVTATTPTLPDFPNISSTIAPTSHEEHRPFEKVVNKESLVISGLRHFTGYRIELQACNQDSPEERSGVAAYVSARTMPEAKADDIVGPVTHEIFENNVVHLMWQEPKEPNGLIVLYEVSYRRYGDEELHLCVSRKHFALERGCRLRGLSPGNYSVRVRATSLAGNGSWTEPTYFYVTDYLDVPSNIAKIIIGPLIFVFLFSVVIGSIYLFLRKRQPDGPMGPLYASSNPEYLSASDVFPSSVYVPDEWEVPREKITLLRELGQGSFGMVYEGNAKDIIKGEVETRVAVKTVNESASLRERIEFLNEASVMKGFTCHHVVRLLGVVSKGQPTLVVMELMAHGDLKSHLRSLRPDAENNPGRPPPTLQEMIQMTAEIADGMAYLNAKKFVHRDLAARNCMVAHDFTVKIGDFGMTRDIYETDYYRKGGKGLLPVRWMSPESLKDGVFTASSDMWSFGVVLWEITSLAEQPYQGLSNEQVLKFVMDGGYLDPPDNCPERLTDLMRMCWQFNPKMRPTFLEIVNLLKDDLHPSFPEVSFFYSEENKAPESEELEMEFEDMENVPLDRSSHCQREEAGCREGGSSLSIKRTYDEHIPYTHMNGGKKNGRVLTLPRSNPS

As to `O=C(c1ccccc1C(F)(F)F)N1CCC(Cc2ccccc2)CC1`, the IC50 entry (in assay [1]; against Insulin receptor; on D(1A) dopamine receptor; in assay [2]; in assay [3]; on Mu-type opioid receptor) was “Not Active” throughout. Moreover, the IC50 result in assay [4] is “Not Active”. The Ki entry in assay [1] and in assay [2] was “Not Active” in each case.
As to `O=C/C=C/c1ccccc1`, the IC50 entry (in assay [1]; on Insulin receptor; on D(1A) dopamine receptor; in assay [2]; in assay [3]; in assay [4]) was “Not Active” in each case. The Ki entry in assay [1] and in assay [2] was “Not Active” in each case.
In the case of `Nc1ccc2c3c(cccc13)C(=O)NC2=O`, the IC50 result (in assay [1]; on Insulin receptor; at D(1A) dopamine receptor; in assay [2]; in assay [3]; at Mu-type opioid receptor) was “Not Active” in each case. For the same compound, in assay [4], the IC50 result was “Not Active”. Also, the Ki result in assay [1] and in assay [2] was “Not Active” throughout.
Take `COc1ccc(C(=O)N2CCCC2=O)cc1`: the IC50 entry (in assay [1]; at Insulin receptor; on D(1A) dopamine receptor; in assay [2]; in assay [3]; on Mu-type opioid receptor) was “Not Active” throughout. For the same compound, in assay [4], the IC50 entry is recorded as “Not Active”. The Ki result in assay [1] and in assay [2] was “Not Active” throughout.
`O=c1cnn([C@@H]2O[C@H](CO)[C@@H](O)[C@H]2O)c(=O)[nH]1` [6-AZAURIDINE]: the IC50 entry (in assay [1]; at Insulin receptor; on D(1A) dopamine receptor; in assay [2]; in assay [3]; on Mu-type opioid receptor) was “Not Active” throughout. The IC50 result in assay [4] is on record as “Not Active”. In addition, the Ki entry in assay [1] and in assay [2] was “Not Active” in each case.
For `CC[C@H](C)[C@H]1O[C@]2(C=C[C@@H]1C)C[C@@H]1C[C@@H](C/C=C(\C)[C@@H](O[C@H]3C[C@H](OC)[C@@H](O[C@H]4C[C@H](OC)[C@@H](O)[C@H](C)O4)[C@H](C)O3)[C@@H](C)/C=C/C=C3\CO[C@@H]4[C@H](O)C(C)=C[C@@H](C(=O)O1)[C@]34O)O2.CO[C@H]1C[C@H](O[C@H]2[C@H](C)O[C@@H](O[C@@H]3/C(C)=C/C[C@@H]4C[C@@H](C[C@]5(C=C[C@H](C)[C@@H](C(C)C)O5)O4)OC(=O)[C@@H]4C=C(C)[C@@H](O)[C@H]5OC/C(=C\C=C\[C@@H]3C)[C@]54O)C[C@@H]2OC)O[C@@H](C)[C@@H]1O` [ABAMECTIN], the IC50 entry (in assay [1]; against Insulin receptor; in assay [2]; in assay [3]; on Mu-type opioid receptor; in assay [4]) was “Not Active” each time. The Ki result in assay [1] and in assay [2] was “Not Active” in each case.
`NCCCC(O)(P(=O)(O)O)P(=O)(O)O` [ALENDRONIC ACID]: the IC50 entry (in assay [1]; at Insulin receptor; at D(1A) dopamine receptor; in assay [2]; in assay [3]; on Mu-type opioid receptor) was “Not Active” throughout. Moreover, in assay [4], the IC50 entry is “Not Active”. Further, the Ki entry in assay [1] and in assay [2] was “Not Active” throughout.
Take `Cc1nnc2n1-c1ccc(Cl)cc1C(c1ccccc1)=NC2` [ALPRAZOLAM]: the IC50 result (in assay [1]; on Insulin receptor; at D(1A) dopamine receptor; in assay [2]; in assay [3]; in assay [4]) was “Not Active” each time. For the same compound, the Ki entry in assay [1] and in assay [2] was “Not Active” throughout.
Turning to `Cn1c(=O)c2[nH]cnc2n(C)c1=O.Cn1c(=O)c2[nH]cnc2n(C)c1=O.NCCN` [AMINOPHYLLINE], the IC50 result (in assay [1]; on Insulin receptor; at D(1A) dopamine receptor; in assay [2]; in assay [3]; at Mu-type opioid receptor) was “Not Active” throughout. Also, the IC50 entry in assay [4] is listed as “Not Active”. The Ki entry in assay [1] and in assay [2] was “Not Active” each time.
In the case of `COc1ccc2cc3[n+](cc2c1OC)CCc1cc2c(cc1-3)OCO2.[Cl-]` [BERBERINE CHLORIDE], the IC50 entry (in assay [1]; against Insulin receptor; in assay [2]; in assay [3]; at Mu-type opioid receptor; in assay [4]) was “Not Active” in each case. The Ki result in assay [1] and in assay [2] was “Not Active” throughout.
One may read the pIC50 as −log10 of the IC50, conventionally taken in molar units. What is called pKi is the negative decadic logarithm of the Ki, by convention in mol/L. Turning to `C[C@@H](CO)NC(=O)[C@@H]1C=C2c3cccc4[nH]cc(c34)C[C@H]2N(C)C1` [ERGONOVINE], the IC50 result (in assay [1]; on Insulin receptor; in assay [2]; in assay [3]; in assay [4]) was “Not Active” throughout. Besides, the Ki result in assay [1] and in assay [2] was “Not Active” in each case. In addition, on D(1A) dopamine receptor (read-out: IC50), the pIC50 is 5.23. For the same compound, the pKi on D(1A) dopamine receptor (read-out: Ki) is 5.53.
Regarding `C[n+]1ccc(-c2cc[n+](C)cc2)cc1.[Cl-].[Cl-]` [PARAQUAT DICHLORIDE], the IC50 entry (in assay [1]; against Insulin receptor; at D(1A) dopamine receptor; in assay [2]; in assay [3]; in assay [4]) was “Not Active” in each case. For the same compound, the Ki entry in assay [1] and in assay [2] was “Not Active” throughout.
`COc1cc2nc(N3CCN(C(=O)c4ccco4)CC3)nc(N)c2cc1OC` [PRAZOSIN]: the IC50 entry (in assay [1]; against Insulin receptor; on D(1A) dopamine receptor; in assay [2]; on Mu-type opioid receptor; in assay [4]) was “Not Active” in each case. Also, the Ki entry in assay [1] and in assay [2] was “Not Active” in each case.
As to `C[C@@H]1O[C@@H](O[C@@H]2C=C3CC[C@@H]4[C@H](CC[C@]5(C)[C@@H](c6ccc(=O)oc6)CC[C@]45O)[C@@]3(C)CC2)[C@H](O)[C@H](O)[C@H]1O` [PROSCILLARIDIN], the IC50 entry (in assay [1]; at Insulin receptor; at D(1A) dopamine receptor; in assay [2]; in assay [3]; in assay [4]) was “Not Active” in each case. Further, the Ki result in assay [1] and in assay [2] was “Not Active” in each case.
Take AURANOFIN: the IC50 result (in assay [1]; against Insulin receptor; on D(1A) dopamine receptor; in assay [2]; in assay [3]) was “Not Active” throughout. Moreover, the Ki result (in assay [1]; at Insulin receptor; at D(1A) dopamine receptor; in assay [2]; in assay [3]) was “Not Active” throughout. Further, the negative-log IC50 (pIC50) in assay [4] is 5.92.
GADOPENTETATE DIMEGLUMINE: the IC50 result (in assay [1]; at Insulin receptor; at D(1A) dopamine receptor; in assay [2]; in assay [3]; in assay [4]) was “Not Active” in each case. Moreover, the Ki entry (in assay [1]; at Insulin receptor; on D(1A) dopamine receptor; in assay [2]; in assay [3]; in assay [4]) was “Not Active” throughout.
With GENTAMICIN, the IC50 entry (in assay [1]; against Insulin receptor; on D(1A) dopamine receptor; in assay [2]; in assay [3]; in assay [4]) was “Not Active” each time. Moreover, the Ki entry (in assay [1]; on Insulin receptor; at D(1A) dopamine receptor; in assay [2]; in assay [3]; in assay [4]) was “Not Active” each time.
In the case of GRAMICIDIN, the IC50 entry (in assay [1]; against Insulin receptor; at D(1A) dopamine receptor; in assay [2]; in assay [3]) was “Not Active” each time. The Ki entry (in assay [1]; at Insulin receptor; at D(1A) dopamine receptor; in assay [2]; in assay [3]) was “Not Active” throughout. In addition, the pIC50 in assay [4] was 5.48.
On to NYSTATIN, for which the IC50 result (in assay [1]; on Insulin receptor; at D(1A) dopamine receptor; in assay [2]; in assay [3]; in assay [4]) was “Not Active” in each case. In addition, the Ki result (in assay [1]; on Insulin receptor; on D(1A) dopamine receptor; in assay [2]; in assay [3]; in assay [4]) was “Not Active” throughout.

The record behind these values is ChEMBL document CHEMBL1909046, “DrugMatrix in vitro pharmacology data”.
